Results as given in PubChem BioAssay (NCI).
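Protocol summary: plate cells (96-well), add compound at 5 concentrations, incubate 48 h, interpolate endpoints linearly. Here, GI50 denotes the concentration required for 50% inhibition of growth. TGI denotes the concentration required for complete inhibition of growth.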

Columns and labels:
Test in all cases: inhibition of tumour cell growth, NCI panel, 48 h
HT29 colon = system: HT29 colon
NCI-H226 lung = system: NCI-H226 lung
UACC-62 melanoma = system: UACC-62 melanoma
OVCAR-4 ovarian = system: OVCAR-4 ovarian
T-47D breast = system: T-47D breast
TK-10 renal = system: TK-10 renal
HL-60(TB) leukemia = system: HL-60(TB) leukemia
DU-145 prostate = system: DU-145 prostate
COLO 205 colon = system: COLO 205 colon
RPMI-8226 leukemia = system: RPMI-8226 leukemia

Compound	TGI (HT29 colon)	TGI (NCI-H226 lung)	TGI (UACC-62 melanoma)	TGI (OVCAR-4 ovarian)	TGI (T-47D breast)	TGI (TK-10 renal)	TGI (HL-60(TB) leukemia)	TGI (DU-145 prostate)	TGI (COLO 205 colon)	TGI (RPMI-8226 leukemia)	GI50 (DU-145 prostate)	GI50 (COLO 205 colon)	GI50 (HT29 colon)	GI50 (NCI-H226 lung)	GI50 (UACC-62 melanoma)	GI50 (T-47D breast)	GI50 (TK-10 renal)	GI50 (HL-60(TB) leukemia)	GI50 (OVCAR-4 ovarian)
Cc1ncc(COP(=O)(O)O)c(C)c1O	> 100 µM	> 100 µM	> 100 µM	> 100 µM	> 100 µM	> 100 µM	> 100 µM	–	–	–	–	–	–	–	–	–	–	–	–
N=C(N)SCCN1CCCCC1	> 100 µM	47.7 µM	55.2 µM	> 100 µM	85.6 µM	> 100 µM	46.3 µM	64.7 µM	> 100 µM	40.2 µM	–	–	–	–	–	–	–	–	–
O=C1O/C(=C\C=C\CO)C=C1/C=C/CO	88.5 µM	95.8 µM	39.8 µM	> 100 µM	51.7 µM	41 µM	54.7 µM	50.7 µM	5.16 µM	47.6 µM	–	–	–	–	–	–	–	–	–
NC(=S)N/N=C1\CC(c2ccccc2)Nc2ccccc21 (stereo not given)	48.5 µM	> 100 µM	> 100 µM	–	–	> 100 µM	31.3 µM	–	73.3 µM	> 100 µM	–	–	–	–	–	–	–	–	–
Cc1ccccc1C1CC(=O)CC(c2ccccc2C)C12C(=O)NC(=S)NC2=O (stereo not given)	54.3 µM	44.2 µM	38.2 µM	> 100 µM	> 100 µM	> 100 µM	59.2 µM	> 100 µM	42.4 µM	38.6 µM	–	–	–	–	–	–	–	–	–
CC(=O)C(N=NC1CCC(S(=O)(=O)NB2N=CS2)CC1)C(=O)Nc1ccccc1C (stereo not given)	29.9 µM	31.4 µM	34.8 µM	74.1 µM	–	58.6 µM	> 100 µM	–	37.2 µM	> 100 µM	–	–	–	–	–	–	–	–	–
CCCCCCCCc1ccc(CCC(N)(CO)CO)cc1	3.31 µM	3.42 µM	3.31 µM	–	3.44 µM	3.58 µM	3.03 µM	3.24 µM	2.92 µM	–	1.81 µM	1.58 µM	1.76 µM	1.77 µM	1.72 µM	1.78 µM	1.89 µM	1.32 µM	–
CC1(Cc2cc3c(cc2C2(c4ccc([N+](=O)[O-])cc4)OCCO2)OCO3)OCCO1	> 100 µM	> 100 µM	> 100 µM	> 100 µM	> 100 µM	> 100 µM	> 100 µM	> 100 µM	> 100 µM	78.4 µM	–	–	–	–	–	–	–	–	–
COc1cc(O)c2c(=O)c(OC)c(-c3ccc(OC)c(OC)c3)oc2c1.[Zn+2]	> 100 µM	> 100 µM	> 100 µM	32.2 µM	> 100 µM	> 100 µM	> 100 µM	> 100 µM	> 100 µM	> 100 µM	24.6 µM	–	41.8 µM	–	11.7 µM	5.7 µM	–	–	4.19 µM
O=S(=O)([O-])[O-].[Fe+2].[OH2+]c1c(Cl)cc(Cl)cc1/C=N/Nc1ccccn1	3.6 µM	4.41 µM	3.38 µM	–	–	2.33 µM	2.92 µM	–	3.47 µM	6.12 µM	–	–	–	–	–	–	1.01 µM	–	–
Cc1cccc(/C=C2/C(=O)Nc3ccccc32)n1	> 100 µM	35.9 µM	25.8 µM	56.7 µM	34.2 µM	33.7 µM	39.8 µM	32.9 µM	> 57 µM	46.5 µM	–	–	–	14.6 µM	10.2 µM	–	–	–	–
C[N+]1(C)C/C(=C\c2ccc(O)cc2)C(=O)/C(=C/c2ccc(O)cc2)C1	> 100 µM	–	> 100 µM	> 100 µM	–	> 100 µM	> 100 µM	–	> 100 µM	> 100 µM	–	–	–	–	–	–	–	–	–
CCOc1ccc(N=Nc2ccc(-c3ccc(N=Nc4c(O)ccc5cc(S(=O)(=O)O)cc(S(=O)(=O)O)c45)cc3)cc2)cc1	> 100 µM	> 100 µM	> 100 µM	> 100 µM	–	> 100 µM	> 100 µM	–	> 100 µM	> 100 µM	–	–	–	–	–	–	–	–	–
CC(=O)Oc1cc(/C=C/c2ccc(O)cc2)cc(OC(C)=O)c1	93.1 µM	86.9 µM	67.3 µM	> 100 µM	> 100 µM	> 100 µM	> 100 µM	> 100 µM	> 100 µM	25.4 µM	–	–	–	–	–	–	–	–	–
COc1ccc(OC)c([N+](=O)[O-])c1-c1nc2sc(C)c(C)n2c1/C=N/N=C(N)N	> 100 µM	> 100 µM	> 100 µM	> 100 µM	61.2 µM	> 100 µM	64.9 µM	> 100 µM	> 100 µM	89.9 µM	–	–	–	–	–	–	–	–	–
O=C(/C=C/c1ccc(O)cc1)c1cc(-c2cc(CCC(=O)c3ccc(O)cc3O)ccc2O)c(O)cc1O	35.8 µM	–	> 50 µM	> 50 µM	> 50 µM	> 50 µM	> 50 µM	> 50 µM	22.6 µM	> 50 µM	–	–	–	–	–	–	–	–	–
CC(=O)c1c(C)cc2cccc(OC3OC(CO)C(O)C(O)C3O)c2c1O (stereo not given) (tested in a mixture with another compound)	> 100 µM	> 100 µM	> 100 µM	> 100 µM	> 100 µM	> 100 µM	> 100 µM	> 100 µM	> 100 µM	> 100 µM	–	–	–	–	–	–	–	–	–
CC(=O)[C@]12OC(=O)C3=C1[C@H](CC[C@@H]3C)[C@@H](C)C[C@H]2C=C(C)C	13.9 µM	16 µM	12.6 µM	–	14.4 µM	–	16 µM	15.4 µM	16.1 µM	15.5 µM	–	–	–	–	–	–	–	–	–
